Test results published in patent publication US20030134401A1, “Process for the stereoselective preparation of functionalized vicinal diols” (priority 2001, published 2003).

Legend:
[1] = test system: whole cell R. glutinis; experiment: Hydrolysis of epoxy nitriles by whole resting cells of Rhodotorula glutinis; assay type: cell-based, Rhodotorula glutinis CBS 8761; details: 50 mM potassium phosphate buffer pH 7.5, 35-37° C., 10 mM epoxide
Protocol: The racemic resolution of the epoxy nitriles was performed with 24 g/L (dry weight) of whole resting cells of Rhodotorula glutinis CBS 8761 in an aqueous solution of 50 mM potassium phosphate buffer at pH 7.5, 35-37° C. The starting epoxide concentration used was 10 mM. After 150 minutes the resolution was stopped by centrifugation and separation of the supernatant liquid and enantiopure epoxide (>99% ee, GC-analysis) could be obtained with 50% conversion (100% of the theoretical yield).
Determination of reaction and extraction progress as well as enantiomeric excess were performed by gas chromatography (GC) using fused silica cyclodextrin capillary column (FS-CYCLODEX alpha-I/P 50 m length, 0.32 mm ID, Chromatography Service GmbH) on an Hewlett-Packard 6890 gas chromatograph equipped with FID detector and using H2 as carrier gas at 120° C. and 0.6 bar pressure.
Examples 12 and 13 were carried out analogously to examples 8 and 10 using 2-cyano-3,3-dimethyl-oxirane as substrate.

[2] = test system: Eph1; experiment: Hydrolysis of epoxy nitriles by cell free extract of recombinant E. coli BL21(DE3)[pEph1]; assay type: biochemical, Rhodotorula glutinis; details: 50 mM potassium phosphate buffer pH 7.5, 35-37° C., 10 mM epoxide
Protocol: Cell extracts (from cell suspensions prepared according to examples 9, 10 and 11) were prepared by sonication (5 minutes, duty cycle 30%, output control 3) using a Branson sonifier 250. To separate the cell extracts in a soluble and an insoluble fraction the disrupted cells in KPi-buffer were centrifuged for 10 minutes at 4° C. and 20,000×g. The supernatant, containing the soluble proteins, was called the S-fraction. The pellet, containing the insoluble proteins and cell debris, was resuspended in an equal volume of KPi-buffer and referred to as the P-fraction.
The racemic resolution of the epoxy nitrile was performed with the cell free extracts of E. coli BL21(DE3)[pEph1] containing 48 mg protein/L in an aqueous solution of 50 mM potassium phosphate buffer at pH 7.5, 35-37° C. The starting epoxide concentration used was 10 mM. After 150 minutes the resolution was stopped by short and rapid heating to 80° C. and enantiopure epoxide (>99% ee, GC-analysis) could be obtained with 50% conversion (100% of the theoretical yield). […]

Compound: N#CC1OC12CCCCC2 (racemic) [1-oxa-spiro[2.5]octane-2-carbonitrile]
- activity [U/g (dry weight)] whole cell R. glutinis [1]: 6 (example 14) U/g (dry weight)
- activity [U/g (protein)] cell free extract E. coli [2]: 3000 (example 16) U/g (protein)

Compound: CC1(C)OC1C#N (stereo not shown) [2-cyano-3,3-dimethyl-oxirane]
- activity [U/g (dry weight)] whole cell R. glutinis [1]: 3 (example 18) U/g (dry weight)
- activity [U/g (protein)] cell free extract E. coli [2]: 300 (example 19) U/g (protein)
